Experimental data published in patent publication US20100137313A1 (ASTRAZENECA AB, priority 2008, published 2010).

Target: S. pneumoniae Topoisomerase IV ATPase (ParE) (Streptococcus pneumoniae serotype 4, UniProt Q59961)
Test: S. pneumoniae Topoisomerase IV ATPase inhibition
Assay type: biochemical
Conditions: values marked * are an average of two or more data points, read-out: % Inh (13 μM) of S. pneumoniae Topoisomerase IV ATPase
Outline: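 S. pneumoniae ParE (1.25 nM) ATPase with 160 μM ATP and 5 μg/ml sheared DNA in pH 8.0 Tris, Mg2+, DTT, Brij-35; phosphate detected by malachite green/molybdate at 650 nm. Normalised to 2% DMSO (0%) and 20 μM EDTA (100%); IC50 from 10 concentrations.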

Chain of S. pneumoniae Topoisomerase IV ATPase (ParE) (Q59961 whole entry): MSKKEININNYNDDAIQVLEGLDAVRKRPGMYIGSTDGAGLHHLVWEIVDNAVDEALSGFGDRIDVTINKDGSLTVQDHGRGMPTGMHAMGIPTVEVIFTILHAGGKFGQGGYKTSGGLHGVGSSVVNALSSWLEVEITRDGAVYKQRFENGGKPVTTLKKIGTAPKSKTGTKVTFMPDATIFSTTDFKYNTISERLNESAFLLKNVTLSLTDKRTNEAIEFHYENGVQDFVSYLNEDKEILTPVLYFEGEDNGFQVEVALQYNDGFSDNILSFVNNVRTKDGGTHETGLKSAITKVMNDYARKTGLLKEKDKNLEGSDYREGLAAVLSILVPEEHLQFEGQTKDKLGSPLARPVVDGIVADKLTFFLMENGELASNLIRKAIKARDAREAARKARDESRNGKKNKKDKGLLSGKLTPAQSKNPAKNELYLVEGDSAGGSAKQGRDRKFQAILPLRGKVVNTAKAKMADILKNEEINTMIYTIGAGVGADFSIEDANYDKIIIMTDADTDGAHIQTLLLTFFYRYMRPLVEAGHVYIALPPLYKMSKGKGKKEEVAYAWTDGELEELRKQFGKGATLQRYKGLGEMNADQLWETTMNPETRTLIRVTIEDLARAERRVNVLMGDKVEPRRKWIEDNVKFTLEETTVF

Structure (SMILES) | inhibition at 13 µM [%]
CCOC(=O)/C=C/c1cccc(-c2cnc(Nc3ccc(F)c(Cl)c3)nc2N2CCN(S(C)(=O)=O)CC2)c1 [Example 174, (E)-ethyl 3-(3-(2-(3-chloro-4-fluorophenylamino)-4-(4-(methylsulfonyl)piper-azin-1-yl)pyrimidin-5-yl)phenyl)acrylate] | 52.1
COc1ncc(-c2cnc(Nc3ccc(F)c(Cl)c3)nc2N[C@H]2CCOC2)cn1 [Example 941, (S)-N2-(3-chloro-4-fluorophenyl)-2′-methoxy-N4-(tetrahydrofuran-3-yl)-5,5′-bipyrimidine-2,4-diamine] | 54
COc1cc(Cl)cc(Nc2ncc(-c3cncc(C(=O)O)c3)c(-n3ccc(C(F)(F)F)n3)n2)c1 [Example 774, 5-{2-[(3-chloro-5-methoxyphenyl)-amino]-4-[3-(trifluoromethyl)-1H-pyrazol-1-yl]pyrimidin-5-yl}pyridine-3-carboxylic acid] | 100
Cc1cc(C)cc(Nc2ncc(-c3ccc4c(c3)C(=O)NS4(=O)=O)c(-n3nc(C(F)(F)F)cc3C)n2)c1 [Example 832, 5-{2-[(3,5-dimethylphenyl)amino]-4-[5-methyl-3-(trifluoromethyl)-1H-pyrazol-1-yl]pyrimidin-5-yl}-1,2-benzothiazol-3(2H)-one 1,1-dioxide] | 100
Fc1ccc(Nc2ncc(-c3cncnc3)c(-n3cnc(Cl)c3Cl)n2)cc1Cl [Example 72, N-(3-chloro-4-fluorophenyl)-4-(4,5-dichloro-1H-imidazol-1-yl)-5,5′-bipyrimidin-2-amine] | 52.6
CN1CCN(CCn2cc(C(=O)O)c(=O)c3cc(-c4cnc(Nc5ccc(F)c(Cl)c5)nc4-n4ccc(C(F)(F)F)n4)ccc32)CC1 [Example 1071, 6-(2-(3-Chloro-4-fluorophenylamino)-4-(3-(trifluoromethyl)-1H-pyrazol-1-yl)pyrimidin-5-yl)-1-(2-(4-methylpiperazin-1-yl)ethyl)-4-oxo-1,4-dihydroquinoline-3-carboxylic acid] | 100
CCN1CCC(CNc2nc(Nc3ccc(F)c(Cl)c3)ncc2-c2cnc(OC)nc2)CC1 [Example 468, N2-(3-chloro-4-fluorophenyl)-N4-((1-ethylpiperidin-4-yl)methyl)-2′-methoxy-5,5′-bipyrimidine-2,4-diamine] | 80
Fc1ccc(Nc2ncc(-c3cncnc3)c(N3CCOCC3)n2)cc1F [Example 352] | 26.7
O=C(O)c1cncc(-c2cnc(Nc3ccc(F)c(Cl)c3)nc2NCCc2ccccn2)c1 [Example 228, 5-[2-(3-Chloro-4-fluoro-phenylamino)-4-(2-pyridin-2-yl-ethylamino)-pyrimidin-5-yl]-nicotinic acid] | 78.5
CCn1cc(-c2cnc(Nc3cc(OC)cc(OC)c3)nc2-n2nc(C(F)(F)F)cc2C)cc(C(=O)O)c1=O [Example 919, 5-(2-(3,5-dimethoxyphenylamino)-4-(5-methyl-3-(trifluoromethyl)-1H-pyrazol-1-yl)pyrimidin-5-yl)-1-ethyl-2-oxo-1,2-dihydropyridine-3-carboxylic acid] | 99
N#Cc1cc(Nc2ncc(-c3cncc(C(=O)O)c3)c(N3CCOCC3)n2)ccc1F [Example 440] | 85
CONC(=O)c1cc(-c2cnc(Nc3ccc(F)c(Cl)c3)nc2-n2nc(C(F)(F)F)cc2C)cnc1OC [Example 1102, 5-(2-(3-chloro-4-fluorophenylamino)-4-(5-methyl-3-(trifluoromethyl)-1H-pyrazol-1-yl)pyrimidin-5-yl)-N,2-dimethoxynicotinamide] | 96
COc1cc(F)cc(Nc2ncc(-c3cncc(C(=O)O)c3)c(N3CCOCC3)n2)c1 [Example 394, 5-[2-(3-Fluoro-5-methoxy-phenylamino)-4-morpholino-4-yl-pyrimidin-5-yl]-nicotinic acid] | 94
